Measurements as given in patent publication US20220340597A1, “HEXAHYDRO-1H-PYRAZINO[1,2-A]PYRAZINE COMPOUNDS FOR THE TREATMENT OF AUTOIMMUNE DISEASE” (Hoffmann-La Roche Inc., priority 2019, published 2022).
pIC50: −log10 of the molar value.

Legend:
human TLR9 = biological target: T1, human TLR9 (Homo sapiens, UniProt Q9NR96); test: HEK293-Blue-hTLR-9 cells assay; format: cell-based; conditions: HEK293-Blue-hTLR9 cells, ODN2006 stimulation, 20 hrs, SEAP reporter; read-out: HEK/hTLR9 IC50
T1 construct: host or cells: HEK293 (HEK-Blue hTLR9)
T1 sequence (Q9NR96 26-1032): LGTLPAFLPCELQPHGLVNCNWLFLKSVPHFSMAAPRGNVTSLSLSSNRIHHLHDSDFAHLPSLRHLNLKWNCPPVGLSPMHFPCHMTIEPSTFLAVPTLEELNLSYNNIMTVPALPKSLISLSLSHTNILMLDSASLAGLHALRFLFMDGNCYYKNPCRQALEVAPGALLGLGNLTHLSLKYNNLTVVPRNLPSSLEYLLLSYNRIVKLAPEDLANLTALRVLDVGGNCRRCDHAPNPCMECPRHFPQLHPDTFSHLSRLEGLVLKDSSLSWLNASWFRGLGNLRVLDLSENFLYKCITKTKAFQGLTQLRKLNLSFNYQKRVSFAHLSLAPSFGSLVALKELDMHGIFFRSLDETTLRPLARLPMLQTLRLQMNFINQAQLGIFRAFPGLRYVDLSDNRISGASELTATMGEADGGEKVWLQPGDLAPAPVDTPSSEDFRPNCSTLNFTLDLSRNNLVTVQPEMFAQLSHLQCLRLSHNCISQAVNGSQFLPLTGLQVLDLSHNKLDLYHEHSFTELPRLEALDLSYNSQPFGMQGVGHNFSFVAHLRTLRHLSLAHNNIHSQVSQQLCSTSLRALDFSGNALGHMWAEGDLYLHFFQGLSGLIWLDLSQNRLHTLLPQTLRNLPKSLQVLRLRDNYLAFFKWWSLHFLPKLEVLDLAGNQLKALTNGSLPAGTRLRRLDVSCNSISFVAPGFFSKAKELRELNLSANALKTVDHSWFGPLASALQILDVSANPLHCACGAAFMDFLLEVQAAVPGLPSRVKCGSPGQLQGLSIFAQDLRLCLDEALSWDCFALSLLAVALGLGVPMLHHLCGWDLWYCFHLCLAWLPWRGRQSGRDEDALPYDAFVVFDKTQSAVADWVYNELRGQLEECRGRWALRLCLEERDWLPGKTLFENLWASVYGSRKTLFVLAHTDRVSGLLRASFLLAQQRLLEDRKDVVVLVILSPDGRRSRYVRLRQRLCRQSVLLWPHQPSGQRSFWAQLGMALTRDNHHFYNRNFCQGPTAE
Method: The following tests were carried out in order to determine the activity of the compounds of formula (I) and (Ia) in HEK293-Blue-hTLR-7/8/9 cells assay.
HEK293-Blue-hTLR-9 Cells Assay:
A stable HEK293-Blue-hTLR-9 cell line was purchased from InvivoGen (Cat. #: hkb-htlr9, San Diego, Calif., USA). These cells were originally designed for studying the stimulation of human TLR9 by monitoring the activation of NF-κB. A SEAP (secreted embryonic alkaline phosphatase) reporter gene was placed under the control of the […] minimal promoter fused to five NF-κB and AP-1-binding sites. The SEAP was induced by activating NF-κB and AP-1 via stimulating HEK-Blue hTLR9 cells with TLR9 ligands. Therefore, the reporter expression was declined by TLR9 antagonist under the stimulation of a ligand, such as ODN2006 (Cat. #: tlr1-2006-1, Invivogen, San Diego, Calif., USA), for incubation of 20 hrs. The cell culture supernatant SEAP reporter activity was determined using QUANTI-Blue™ kit (Cat. #: rep-qb1, Invivogen, San Diego, Calif., USA) at a wavelength of 640 nm, a detection medium that turns purple or blue in the presence of alkaline phosphatase.
Then 20 μL of the supernatant from each well was incubated with 180 μL Quanti-blue substrate solution at 37° C. for 2 h and the absorbance was read at 620-655 nm using a spectrophotometer. The signaling pathway that TLR9 activation leads to downstream NF-κB activation has been widely accepted, and therefore similar reporter assay was modified for evaluating TLR9 antagonist.

hERG channel = biological target: T2, hERG channel (Homo sapiens, UniProt Q12809); test: hERG channel inhibition assay (patch-clamp, CHOhERG cells); format: cell-based; conditions: CHOhERG cells, whole-cell patch-clamp; for IC20: human, CHO cells stably expressing hERG (CHOhERG)
T2 construct: expressed in transfected cells; host or cells: CHO (Chinese hamster ovary), CHOhERG
T2 sequence (Q12809 whole entry): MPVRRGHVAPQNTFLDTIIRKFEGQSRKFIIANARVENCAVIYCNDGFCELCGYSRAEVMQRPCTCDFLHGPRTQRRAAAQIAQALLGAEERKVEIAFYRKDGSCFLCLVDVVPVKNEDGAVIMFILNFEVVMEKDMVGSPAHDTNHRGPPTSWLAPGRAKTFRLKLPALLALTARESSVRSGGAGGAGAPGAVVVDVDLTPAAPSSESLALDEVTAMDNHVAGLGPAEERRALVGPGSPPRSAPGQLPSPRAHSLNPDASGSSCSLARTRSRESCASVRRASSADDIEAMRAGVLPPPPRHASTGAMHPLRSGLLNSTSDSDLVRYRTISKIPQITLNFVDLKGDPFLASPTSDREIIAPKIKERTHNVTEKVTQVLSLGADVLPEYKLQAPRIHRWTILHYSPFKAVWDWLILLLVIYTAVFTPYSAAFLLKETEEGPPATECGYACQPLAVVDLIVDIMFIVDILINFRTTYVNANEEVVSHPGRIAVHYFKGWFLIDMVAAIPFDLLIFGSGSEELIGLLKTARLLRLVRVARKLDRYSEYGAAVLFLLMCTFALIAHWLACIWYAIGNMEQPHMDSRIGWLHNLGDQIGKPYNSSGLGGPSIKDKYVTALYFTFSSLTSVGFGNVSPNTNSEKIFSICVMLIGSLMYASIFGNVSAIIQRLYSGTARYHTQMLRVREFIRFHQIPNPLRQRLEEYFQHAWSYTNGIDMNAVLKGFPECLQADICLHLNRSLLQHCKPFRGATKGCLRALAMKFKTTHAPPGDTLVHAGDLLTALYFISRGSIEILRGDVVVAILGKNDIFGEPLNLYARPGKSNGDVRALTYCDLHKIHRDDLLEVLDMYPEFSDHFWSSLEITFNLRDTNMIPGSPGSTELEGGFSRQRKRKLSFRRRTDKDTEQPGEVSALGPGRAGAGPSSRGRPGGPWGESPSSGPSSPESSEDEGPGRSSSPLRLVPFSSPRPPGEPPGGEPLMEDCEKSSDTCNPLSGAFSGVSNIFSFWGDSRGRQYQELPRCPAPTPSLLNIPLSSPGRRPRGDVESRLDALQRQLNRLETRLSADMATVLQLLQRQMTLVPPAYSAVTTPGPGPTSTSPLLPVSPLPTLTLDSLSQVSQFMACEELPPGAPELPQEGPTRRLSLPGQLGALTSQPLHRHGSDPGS
Method: hERG Channel Inhibition Assay:
The hERG K^+ channels were cloned in humans and stably expressed in a CHO (Chinese hamster ovary) cell line. CHOhERG cells were used for patch-clamp (voltage-clamp, whole-cell) experiments. Cells were stimulated by a voltage pattern to activate hERG channels and conduct IKhERG currents (rapid delayed outward rectifier potassium current of the hERG channel). After the cells were stabilized for a few minutes, the amplitude and kinetics of IKhERG were recorded at a stimulation frequency of 0.1 Hz (6 bpm). Thereafter, the test compound was added to the preparation at increasing concentrations. For each concentration, an attempt was made to reach a steady-state effect, usually, this was achieved within 3-10 min at which time the next highest concentration was applied. The amplitude and kinetics of IKhERG are recorded in each concentration of the drug which were compared to the control values (taken as 100%). (references: Redfern W S, Carlsson L, Davis A S, Lynch W G, MacKenzie I, Palethorpe S, Siegl P K, Strang I, Sullivan A T, Wallis R, Camm A J, Hammond T G. 2003; Relationships between preclinical cardiac electrophysiology, clinical QT interval prolongation and torsade de pointes for a broad range of drugs: evidence for a provisional safety margin in drug development. Cardiovasc. Res. 58:32-45, Sanguinetti M C, Tristani-Firouzi M. 2006; hERG potassium channels and cardiac arrhythmia. Nature 440:463-469, Webster R, Leishman D, Walker D. 2002; Towards a drug concentration effect relationship for QT prolongation and torsades de pointes. Curr. Opin. Drug Discov. Devel. 5:116-26).
The calculation of hERG IC20/TLR7/8/9 IC50 below serves as early selectivity index to assess hERG liability.

Structure (SMILES) | pIC50 (human TLR9) | pIC50 (hERG channel) | IC20 (hERG channel)
C[C@@H]1CN(c2ccc(C#N)c3ncccc23)C[C@H]2CN(c3cccc4c3CCNC4)CCN21 (relative stereo) [Example 47] | 6.93 |  | 
C[C@@H]1CN(c2ccc(C#N)c3ncccc23)C[C@@H]2CN(CCc3ccc(N4C[C@@H](N)[C@@H](F)C4)nc3)CCN21 [Example 17, 5-[(4R,9aS)-8-[2-[6-[(3R,4S)-3-amino-4-fluoro-pyrrolidin-1-yl]-3-pyridyl]ethyl]-4-methyl-3,4,6,7,9,9a-hexahydro-1H-pyrazino[1,2-a]pyrazin-2-yl]quinoline-8-carbonitrile] | 7.33 | < 4.70 | > 10 µM
C[C@@H]1CN(c2ccc(C#N)c3ncccc23)C[C@@H]2CN(CCc3ccc(N4C[C@@H](N)[C@H](F)C4)nc3)CCN21 [Example 18, 5-[(4R,9aS)-8-[2-[6-[(3R,4R)-3-amino-4-fluoro-pyrrolidin-1-yl]-3-pyridyl]ethyl]-4-methyl-3,4,6,7,9,9a-hexahydro-1H-pyrazino[1,2-a]pyrazin-2-yl]quinoline-8-carbonitrile] | 7.19 |  | 
C[C@@H]1CN(c2ccc(C#N)c3ncccc23)C[C@H]2CN(c3cncc4c3CCNC4)CCN21 [Example 42, 5-[(4R,9aS)-4-methyl-8-(5,6,7,8-tetrahydro-2,7-naphthyridin-4-yl)-3,4,6,7,9,9a-hexahydro-1H-pyrazino[1,2-a]pyrazin-2-yl]quinoline-8-carbonitrile] | 7.30 | < 5.00 | 4.35 µM
C[C@@H]1CN(c2ccc(C#N)c3ncccc23)C[C@@H]2CN(c3cncc4c3CCNC4)CCN21 [Example 44, 5-[(4R,9aR)-4-methyl-8-(5,6,7,8-tetrahydro-2,7-naphthyridin-4-yl)-3,4,6,7,9,9a-hexahydro-1H-pyrazino[1,2-a]pyrazin-2-yl]quinoline-8-carbonitrile] | 7.30 |  | 
[2H]c1ccc2c(N3C[C@@H]4CN(CCc5ccc(N6C[C@@H](N)[C@@H](F)C6)nc5)CCN4[C@H](C)C3)ccc(C#N)c2n1 [Example 63, 5-[(4R,9aS)-8-[2-[6-[(3R,4S)-3-amino-4-fluoro-pyrrolidin-1-yl]-3-pyridyl]ethyl]-4-methyl-3,4,6,7,9,9a-hexahydro-1H-pyrazino[1,2-a]pyrazin-2-yl]-2-deuterio-quinoline-8-carbonitrile] | 7.11 |  | 
[2H]c1ccc2c(N3C[C@@H]4CN(c5ncc(N6CC7(CC(N)C7)C6)cc5C)CCN4[C@H](C)C3)ccc(C#N)c2n1 [Example 101, 5-[(4R,9aR)-8-[5-(6-amino-2-azaspiro[3.3]heptan-2-yl)-3-methyl-2-pyridyl]-4-methyl-3,4,6,7,9,9a-hexahydro-1H-pyrazino[1,2-a]pyrazin-2-yl]-2-deuterio-quinoline-8-carbonitrile] | 7.09 |  | 
[2H]c1ccc2c(N3C[C@@H]4CN(c5ncc(N6CCOC[C@H](N)C6)cc5C)CCN4[C@@H](C)C3)ccc(C#N)c2n1 [Example 110, 5-[(4S,9aR)-8-[5-[(6R)-6-amino-1,4-oxazepan-4-yl]-3-methyl-2-pyridyl]-4-methyl-3,4,6,7,9,9a-hexahydro-1H-pyrazino[1,2-a]pyrazin-2-yl]-2-deuterio-quinoline-8-carbonitrile] | 7.15 |  | 
